Laboratory results reported in article PMC10539439 (Pharmacological Reports, 2023).

Assay: Blood pressure, 24-h telemetric method, normotensive rats
Assay type: in vivo, rat
Conditions: 5 mg/kg
Procedure: The blood pressure of rats treated with the tested compound was measured for a 24 h period after ip treatment (5 mg/kg b.w.) with a special telemetric system Stellar (TSE-Systems, Germany).
Surgery: The operation was carried out over 30 min under sterile conditions. Rats were anaesthetized with ketamine and xylasine (intramuscular injection: 100 mg/kg and 10 mg/kg). Before surgery and for 7 days after, the animals were also treated with cefuroxime (20 mg/kg/day) via intramuscular injection and ketoprofen (5 mg/kg/day) via ip injection. […] The transmitter was sutured to the peritoneal cavity.
The rats were individually caged for 2 weeks to heal after surgical cut. The animals were then placed in pairs in cages to reduce their isolation stress. Blood pressure was measured: before ip administration of the compounds – time 0 min and 24 h thereafter.

[1] = telemetry, after first administration, time 0, n 6
[2] = telemetry, after first administration, time 0.25, n 6
[3] = telemetry, after first administration, time 0.5, n 6
[4] = telemetry, after first administration, time 0.75, n 6
[5] = telemetry, after first administration, time 1, n 6
[6] = telemetry, after first administration, time 1.25, n 6
[7] = telemetry, after first administration, time 1.5, n 6
[8] = telemetry, after first administration, time 1.75, n 6
[9] = telemetry, after first administration, time 2, n 6
[10] = telemetry, after first administration, time 3, n 6
[11] = telemetry, after first administration, time 4, n 6
[12] = telemetry, after first administration, time 5, n 6
[13] = telemetry, after first administration, time 6, n 6
[14] = telemetry, after first administration, time 7, n 6
[15] = telemetry, after first administration, time 8, n 6
[16] = telemetry, after first administration, time 9, n 6
[17] = telemetry, after first administration, time 10, n 6
[18] = telemetry, after first administration, time 11, n 6
[19] = telemetry, after first administration, time 12, n 6
[20] = telemetry, after first administration, time 13, n 6
[21] = telemetry, after first administration, time 14, n 6
[22] = telemetry, after first administration, time 15, n 6
[23] = telemetry, after first administration, time 16, n 6
[24] = telemetry, after first administration, time 17, n 6
[25] = telemetry, after first administration, time 18, n 6
[26] = telemetry, after first administration, time 19, n 6
[27] = telemetry, after first administration, time 20, n 6
[28] = telemetry, after first administration, time 21, n 6
[29] = telemetry, after first administration, time 22, n 6
[30] = telemetry, after first administration, time 23, n 6
[31] = telemetry, after first administration, time 24, n 6
[32] = telemetry, after forteenth administration, time 0, n 6
[33] = telemetry, after forteenth administration, time 0.25, n 6
[34] = telemetry, after seventh administration, time 0, n 6
[35] = telemetry, after seventh administration, time 0.25, n 6
[36] = telemetry, after seventh administration, time 0.5, n 6
[37] = telemetry, after seventh administration, time 0.75, n 6
[38] = telemetry, after seventh administration, time 1, n 6
[39] = telemetry, after seventh administration, time 1.25, n 6
[40] = telemetry, after seventh administration, time 1.5, n 6
[41] = telemetry, after seventh administration, time 1.75, n 6
[42] = telemetry, after seventh administration, time 2, n 6
[43] = telemetry, after seventh administration, time 3, n 6
[44] = telemetry, after seventh administration, time 4, n 6
[45] = telemetry, after seventh administration, time 5, n 6
[46] = telemetry, after seventh administration, time 6, n 6
[47] = telemetry, after seventh administration, time 7, n 6
[48] = telemetry, after seventh administration, time 8, n 6
[49] = telemetry, after seventh administration, time 9, n 6
[50] = telemetry, after seventh administration, time 10, n 6
[51] = telemetry, after seventh administration, time 11, n 6
[52] = telemetry, after seventh administration, time 12, n 6
[53] = telemetry, after seventh administration, time 13, n 6
[54] = telemetry, after seventh administration, time 14, n 6
[55] = telemetry, after seventh administration, time 15, n 6
[56] = telemetry, after seventh administration, time 16, n 6
[57] = telemetry, after seventh administration, time 17, n 6
[58] = telemetry, after seventh administration, time 18, n 6
[59] = telemetry, after seventh administration, time 19, n 6
[60] = telemetry, after seventh administration, time 20, n 6
[61] = telemetry, after seventh administration, time 21, n 6
[62] = telemetry, after seventh administration, time 22, n 6
[63] = telemetry, after seventh administration, time 23, n 6
[64] = telemetry, after seventh administration, time 24, n 6

N=C(N)N/N=C/c1c(Cl)cc(O)cc1Cl [4HOGuanabenz]
diastolic pressure, mean (rat, time 0.5): 94.25 mmHg
systolic pressure, mean (rat, time 0.5): 131.8 mmHg
diastolic pressure, mean (rat, time 0.75): 87.25 mmHg
systolic pressure, mean (rat, time 0.75): 118.5 mmHg
diastolic pressure, mean (rat, time 1): 82.5 mmHg
systolic pressure, mean (rat, time 1): 111.8 mmHg
diastolic pressure, mean (rat, time 1.25): 78.5 mmHg
systolic pressure, mean (rat, time 1.25): 107.3 mmHg
diastolic pressure, mean (rat, time 1.5): 79.75 mmHg
systolic pressure, mean (rat, time 1.5): 117.5 mmHg
diastolic pressure, mean (rat, time 1.75): 80.5 mmHg
systolic pressure, mean (rat, time 1.75): 111.3 mmHg
diastolic pressure, mean (rat, time 2): 78.75 mmHg
systolic pressure, mean (rat, time 2): 117.5 mmHg
diastolic pressure, mean (rat, time 3): 77 mmHg
systolic pressure, mean (rat, time 3): 109.8 mmHg
diastolic pressure, mean (rat, time 4): 80.5 mmHg
systolic pressure, mean (rat, time 4): 117 mmHg
diastolic pressure, mean (rat, time 5): 81 mmHg
systolic pressure, mean (rat, time 5): 116.5 mmHg
diastolic pressure, mean (rat, time 6): 77.5 mmHg
systolic pressure, mean (rat, time 6): 119.8 mmHg
diastolic pressure, mean (rat, time 7): 76.25 mmHg
systolic pressure, mean (rat, time 7): 117.3 mmHg
diastolic pressure, mean (rat, time 8): 66.75 mmHg
systolic pressure, mean (rat, time 8): 113.3 mmHg
diastolic pressure, mean (rat, time 9): 83.5 mmHg
systolic pressure, mean (rat, time 9): 131.8 mmHg
diastolic pressure, mean (rat, time 10): 70.75 mmHg
systolic pressure, mean (rat, time 10): 120.8 mmHg
diastolic pressure, mean (rat, time 11): 81.5 mmHg
systolic pressure, mean (rat, time 11): 125.3 mmHg
diastolic pressure, mean (rat, time 12): 77.25 mmHg
systolic pressure, mean (rat, time 12): 123.8 mmHg
diastolic pressure, mean (rat, time 13): 75.75 mmHg
systolic pressure, mean (rat, time 13): 113 mmHg
diastolic pressure, mean (rat, time 14): 73.25 mmHg
systolic pressure, mean (rat, time 14): 113.5 mmHg
diastolic pressure, mean (rat, time 15): 77.5 mmHg
systolic pressure, mean (rat, time 15): 113.3 mmHg
diastolic pressure, mean (rat, time 16): 79.5 mmHg
systolic pressure, mean (rat, time 16): 121.8 mmHg
diastolic pressure, mean (rat, time 17): 88.25 mmHg
systolic pressure, mean (rat, time 17): 124.5 mmHg
diastolic pressure, mean (rat, time 18): 76 mmHg
systolic pressure, mean (rat, time 18): 118.5 mmHg
diastolic pressure, mean (rat, time 19): 76 mmHg
systolic pressure, mean (rat, time 19): 117.5 mmHg
diastolic pressure, mean (rat, time 20): 66 mmHg
systolic pressure, mean (rat, time 20): 108.8 mmHg
diastolic pressure, mean (rat, time 21): 70.5 mmHg
systolic pressure, mean (rat, time 21): 103.3 mmHg
diastolic pressure, mean (rat, time 22): 74.5 mmHg
systolic pressure, mean (rat, time 22): 110.3 mmHg
diastolic pressure, mean (rat, time 23): 75.25 mmHg
systolic pressure, mean (rat, time 23): 116.3 mmHg
diastolic pressure, mean (rat, time 24): 72.75 mmHg
systolic pressure, mean (rat, time 24): 109.5 mmHg
diastolic pressure, mean [1]: 80.5 mmHg
systolic pressure, mean [1]: 126.2 mmHg
diastolic pressure, mean [2]: 92.75 mmHg
systolic pressure, mean [2]: 141 mmHg
diastolic pressure, mean [3]: 87.5 mmHg
systolic pressure, mean [3]: 127.3 mmHg
diastolic pressure, mean [4]: 78 mmHg
systolic pressure, mean [4]: 115.6 mmHg
diastolic pressure, mean [5]: 81.38 mmHg
systolic pressure, mean [5]: 117.3 mmHg
diastolic pressure, mean [6]: 76.88 mmHg
systolic pressure, mean [6]: 111 mmHg
diastolic pressure, mean [7]: 75.13 mmHg
systolic pressure, mean [7]: 106 mmHg
diastolic pressure, mean [8]: 80.13 mmHg
systolic pressure, mean [8]: 112.4 mmHg
diastolic pressure, mean [9]: 74.63 mmHg
systolic pressure, mean [9]: 107 mmHg
diastolic pressure, mean [10]: 78.75 mmHg
systolic pressure, mean [10]: 110.8 mmHg
diastolic pressure, mean [11]: 68.75 mmHg
systolic pressure, mean [11]: 107.9 mmHg
diastolic pressure, mean [12]: 80.88 mmHg
systolic pressure, mean [12]: 114.1 mmHg
diastolic pressure, mean [13]: 78 mmHg
systolic pressure, mean [13]: 111.6 mmHg
diastolic pressure, mean [14]: 71 mmHg
systolic pressure, mean [14]: 111.1 mmHg
diastolic pressure, mean [15]: 72.75 mmHg
systolic pressure, mean [15]: 110.8 mmHg
diastolic pressure, mean [16]: 77.88 mmHg
systolic pressure, mean [16]: 114.6 mmHg
diastolic pressure, mean [17]: 77.63 mmHg
systolic pressure, mean [17]: 114.9 mmHg
diastolic pressure, mean [18]: 70.75 mmHg
systolic pressure, mean [18]: 107.6 mmHg
diastolic pressure, mean [19]: 80.25 mmHg
systolic pressure, mean [19]: 121.9 mmHg
diastolic pressure, mean [20]: 74.5 mmHg
systolic pressure, mean [20]: 114.9 mmHg
diastolic pressure, mean [21]: 81.88 mmHg
systolic pressure, mean [21]: 122.6 mmHg
diastolic pressure, mean [22]: 71.63 mmHg
systolic pressure, mean [22]: 109.4 mmHg
diastolic pressure, mean [23]: 72.75 mmHg
systolic pressure, mean [23]: 108.4 mmHg
diastolic pressure, mean [24]: 76.75 mmHg
systolic pressure, mean [24]: 112.6 mmHg
diastolic pressure, mean [25]: 78.75 mmHg
systolic pressure, mean [25]: 115.3 mmHg
diastolic pressure, mean [26]: 79.5 mmHg
systolic pressure, mean [26]: 117.3 mmHg
diastolic pressure, mean [27]: 77 mmHg
systolic pressure, mean [27]: 117.8 mmHg
diastolic pressure, mean [28]: 76.63 mmHg
systolic pressure, mean [28]: 117.8 mmHg
diastolic pressure, mean [29]: 71.5 mmHg
systolic pressure, mean [29]: 109.5 mmHg
diastolic pressure, mean [30]: 73.38 mmHg
systolic pressure, mean [30]: 109.5 mmHg
diastolic pressure, mean [31]: 77.63 mmHg
systolic pressure, mean [31]: 114.3 mmHg
diastolic pressure, mean [32]: 70.25 mmHg
systolic pressure, mean [32]: 110.5 mmHg
diastolic pressure, mean [33]: 90.75 mmHg
systolic pressure, mean [33]: 139.3 mmHg
diastolic pressure, mean [34]: 74.83 mmHg
systolic pressure, mean [34]: 108.2 mmHg
diastolic pressure, mean [35]: 97.5 mmHg
systolic pressure, mean [35]: 141.8 mmHg
diastolic pressure, mean [36]: 76.75 mmHg
systolic pressure, mean [36]: 114.3 mmHg
diastolic pressure, mean [37]: 77.5 mmHg
systolic pressure, mean [37]: 111.5 mmHg
diastolic pressure, mean [38]: 76.75 mmHg
systolic pressure, mean [38]: 109.3 mmHg
diastolic pressure, mean [39]: 74.25 mmHg
systolic pressure, mean [39]: 106.8 mmHg
diastolic pressure, mean [40]: 74 mmHg
systolic pressure, mean [40]: 107.3 mmHg
diastolic pressure, mean [41]: 70.75 mmHg
systolic pressure, mean [41]: 102 mmHg
diastolic pressure, mean [42]: 67.25 mmHg
systolic pressure, mean [42]: 100.5 mmHg
diastolic pressure, mean [43]: 74 mmHg
systolic pressure, mean [43]: 109 mmHg
diastolic pressure, mean [44]: 74.75 mmHg
systolic pressure, mean [44]: 109.3 mmHg
diastolic pressure, mean [45]: 74.25 mmHg
systolic pressure, mean [45]: 110.3 mmHg
diastolic pressure, mean [46]: 79.75 mmHg
systolic pressure, mean [46]: 113.8 mmHg
diastolic pressure, mean [47]: 70.5 mmHg
systolic pressure, mean [47]: 113.3 mmHg
diastolic pressure, mean [48]: 78.75 mmHg
systolic pressure, mean [48]: 116.3 mmHg
diastolic pressure, mean [49]: 75.5 mmHg
systolic pressure, mean [49]: 119.5 mmHg
diastolic pressure, mean [50]: 65.5 mmHg
systolic pressure, mean [50]: 106 mmHg
diastolic pressure, mean [51]: 75.75 mmHg
systolic pressure, mean [51]: 117.3 mmHg
diastolic pressure, mean [52]: 65.5 mmHg
systolic pressure, mean [52]: 116.8 mmHg
diastolic pressure, mean [53]: 79.25 mmHg
systolic pressure, mean [53]: 121.5 mmHg
diastolic pressure, mean [54]: 74 mmHg
systolic pressure, mean [54]: 111.5 mmHg
diastolic pressure, mean [55]: 77.25 mmHg
systolic pressure, mean [55]: 113.3 mmHg
diastolic pressure, mean [56]: 71.5 mmHg
systolic pressure, mean [56]: 107.3 mmHg
diastolic pressure, mean [57]: 79 mmHg
systolic pressure, mean [57]: 122.3 mmHg
diastolic pressure, mean [58]: 77 mmHg
systolic pressure, mean [58]: 117.5 mmHg
diastolic pressure, mean [59]: 77 mmHg
systolic pressure, mean [59]: 120.5 mmHg
diastolic pressure, mean [60]: 76.25 mmHg
systolic pressure, mean [60]: 122.3 mmHg
diastolic pressure, mean [61]: 69.25 mmHg
systolic pressure, mean [61]: 110 mmHg
diastolic pressure, mean [62]: 68 mmHg
systolic pressure, mean [62]: 108 mmHg
diastolic pressure, mean [63]: 63.75 mmHg
systolic pressure, mean [63]: 107 mmHg
diastolic pressure, mean [64]: 67.5 mmHg
systolic pressure, mean [64]: 105 mmHg
